Test results: patent publication US20040009495A1, “Methods and products related to drug screening using gene expression patterns” (Whitehead Institute for Biomedical Research, priority 2001, published 2004)

Legend:
HL60 cells [1] = test: HL60 cell differentiation on exposure to inducing chemical; assay type: cell-based
Procedure: HL60 cells, provided by American Type Cell Culture (Manassas, Va.), were grown in RPMI medium 1640 with 10% fetal bovine serum (Sigma, St. Louis, Mo.) and 1% penicillin-streptomycin. For design of the model, neutrophil differentiation was stimulated with 1 uM ATRA (Sigma, St. Louis, Mo.) for 0, 24, 48, 72, and 120 hours and with 1.25% dimethyl sulfoxide (DMSO) (American Bioanalytical, Natick, Mass.) for 72 hours. Monocyte/macrophage differentiation was induced with 10 nM phorbol 12-myristate 13-acetate (PMA) (Sigma, St. Louis, Mo.) for 0, 4, 12, and 24, and 120 hours and with Vitamin D3 (1 alpha 25-dihydroxy) (Calbiochem, San Diego, Calif.) 2.5 uM for 72 hours. Differentiation was confirmed by morphological changes by light microscopy for monocyte/macrophage differentiation and by May Grunwald Giemsa stain for neutrophil differentiation.
Acute Myeloid Leukemia (AML) represents a form of cancer for which improved treatment in therapy is greatly sought. For more than 20 years, researchers have used a cell line (HL60 cell line) which closely mimics the behavior of AML and which is easily maintained in cell culture. […] The different gene expression signatures were evaluated for “in vivo authenticity” by confirming the same gene expression differences in native human neutrophils and native human monocytes compared to patient AML cells. […]

HL60 cells [2] = test: Marker gene expression ratios to GAPDH in HL60 control cells (multiplex RT-PCR, direct gene dendrimer readout); assay type: cell-based; settings: for Ave IL1RN/GAPDH / Ave SPP1/GAPDH / IL1RN fold increase over AML / SPP1 fold increase over AML: HL60 cells; for Ave IL1RN/GAPDH / Ave SPP1/GAPDH: highest stringency filter of 50% dilution, 1 uM ATRA or 10 nM PMA; for IL1RN fold increase over AML / SPP1 fold increase over AML: versus undifferentiated HL60 (AML)
[3] = treated HL60 cells, text summary over 3 plex and 5 plex

Row | SMILES | differentiation of HL60 cells upon exposure (HL60 cells [1]) | Ave IL1RN/GAPDH (HL60 cells [2]; 3 plex) | Ave SPP1/GAPDH (HL60 cells [2]; 3 plex) | Ave IL1RN/GAPDH (HL60 cells [2]; 5 plex) | Ave SPP1/GAPDH (HL60 cells [2]; 5 plex) | IL1RN fold increase over AML (HL60 cells [2]; 3 plex) [fold] | SPP1 fold increase over AML (HL60 cells [2]; 3 plex) [fold] | IL1RN fold increase over AML (HL60 cells [2]; 5 plex) [fold] | SPP1 fold increase over AML (HL60 cells [2]; 5 plex) [fold] | IL1RN increase with respect to AML (HL60 cells [2]; [3]) | SSP1 increase over AML (HL60 cells [2]; [3])
1 | CC1=C(/C=C/C(C)=C/C=C/C(C)=C/C(=O)O)C(C)(C)CCC1 [ATRA, all trans retinoic acid] | differentiated into neutrophils | 0.02 | 0.03 | 0.02 | 0.02 | – | – | – | – | – | –
2 | CCCCCCCCCCCCCC(=O)O[C@@H]1[C@@H](C)[C@@]2(O)[C@@H](C=C(CO)C[C@]3(O)C(=O)C(C)=C[C@@H]23)[C@@H]2C(C)(C)[C@]12OC(C)=O [PMA, Phorbol 12-myristate 13-acetate] | differentiated into monocyte/macrophage | 2.04 | 1.17 | 0.98 | 0.55 | 84.4 | 55.1 | 40.5 | 25.9 | 40-84 fold | 25-55 fold
